# Source: ChEMBL document CHEMBL4004838, “Design and synthesis of novel phenyl -1, 4-beta-carboline-hybrid molecules as potential anticancer agents” (Eur J Med Chem, 2017)
# Legend:
# Format in all cases: functional
# OVCAR-3 = experiment: Growth inhibition of human OVCAR3 cells assessed as cell growth at 10^-5 M incubated for 48 hrs by sulforhodamine B assay relative to control; details: OVCAR-3, 48 h, read-out: Activity
# HCC 2998 = experiment: Growth inhibition of human HCC2998 cells assessed as cell growth at 10^-5 M incubated for 48 hrs by sulforhodamine B assay relative to control; details: HCC 2998, 48 h, read-out: Activity
# SF-539 = experiment: Growth inhibition of human SF539 cells assessed as cell growth at 10^-5 M incubated for 48 hrs by sulforhodamine B assay relative to control; details: SF-539, 48 h, read-out: Activity
# OVCAR-8 = experiment: Growth inhibition of human OVCAR8 cells assessed as cell growth at 10^-5 M incubated for 48 hrs by sulforhodamine B assay relative to control; details: OVCAR-8, 48 h, read-out: Activity
# SK-MEL-28 = experiment: Growth inhibition of human SK-MEL-28 cells assessed as cell growth at 10^-5 M incubated for 48 hrs by sulforhodamine B assay relative to control; details: SK-MEL-28, 48 h, read-out: Activity
# ACHN = experiment: Growth inhibition of human ACHN cells assessed as cell growth at 10^-5 M incubated for 48 hrs by sulforhodamine B assay relative to control; details: read-out: Activity
# MDA-MB-468 = experiment: Growth inhibition of human MDA-MB-468 cells assessed as cell growth at 10^-5 M incubated for 48 hrs by sulforhodamine B assay relative to control; details: MDA-MB-468, 48 h, read-out: Activity
# UO-31 = experiment: Growth inhibition of human UO31 cells assessed as cell growth at 10^-5 M incubated for 48 hrs by sulforhodamine B assay relative to control; details: UO-31, 48 h, read-out: Activity
# OVCAR-5 = experiment: Growth inhibition of human OVCAR5 cells assessed as cell growth at 10^-5 M incubated for 48 hrs by sulforhodamine B assay relative to control; details: OVCAR-5, 48 h, read-out: Activity
# SN12C = experiment: Growth inhibition of human SN12C cells assessed as cell growth at 10^-5 M incubated for 48 hrs by sulforhodamine B assay relative to control; details: read-out: Activity
# IGROV-1 = experiment: Growth inhibition of human IGROV1 cells assessed as cell growth at 10^-5 M incubated for 48 hrs by sulforhodamine B assay relative to control; details: IGROV-1, 48 h, read-out: Activity
# HT-29 = experiment: Growth inhibition of human HT-29 cells assessed as cell growth at 10^-5 M incubated for 48 hrs by sulforhodamine B assay relative to control; details: HT-29, 48 h, read-out: Activity
# MOLT-4 = experiment: Growth inhibition of human MOLT4 cells assessed as cell growth at 10^-5 M incubated for 48 hrs by sulforhodamine B assay relative to control; details: MOLT-4, 48 h, read-out: Activity
# SK-MEL-5 = experiment: Growth inhibition of human SK-MEL-5 cells assessed as cell growth at 10^-5 M incubated for 48 hrs by sulforhodamine B assay relative to control; details: SK-MEL-5, 48 h, read-out: Activity
# RXF 393 = experiment: Growth inhibition of human RXF393 cells assessed as cell growth at 10^-5 M incubated for 48 hrs by sulforhodamine B assay relative to control; details: RXF 393, 48 h, read-out: Activity
# EKVX = experiment: Growth inhibition of human EKVX cells assessed as cell growth at 10^-5 M incubated for 48 hrs by sulforhodamine B assay relative to control; details: read-out: Activity
# MDA-MB-231 = experiment: Growth inhibition of human MDA-MB-231 cells assessed as cell growth at 10^-5 M incubated for 48 hrs by sulforhodamine B assay relative to control; details: MDA-MB-231, 48 h, read-out: Activity
# UACC-257 = experiment: Growth inhibition of human UACC257 cells assessed as cell growth at 10^-5 M incubated for 48 hrs by sulforhodamine B assay relative to control; details: UACC-257, 48 h, read-out: Activity
# SNB-19 = experiment: Growth inhibition of human SNB19 cells assessed as cell growth at 10^-5 M incubated for 48 hrs by sulforhodamine B assay relative to control; details: SNB-19, 48 h, read-out: Activity
# UACC-62 = experiment: Growth inhibition of human UACC62 cells assessed as cell growth at 10^-5 M incubated for 48 hrs by sulforhodamine B assay relative to control; details: UACC-62, 48 h, read-out: Activity
# LOX IMVI = experiment: Growth inhibition of human LOXIMVI cells assessed as cell growth at 10^-5 M incubated for 48 hrs by sulforhodamine B assay relative to control; details: read-out: Activity
# DU-145 = experiment: Growth inhibition of human DU145 cells assessed as cell growth at 10^-5 M incubated for 48 hrs by sulforhodamine B assay relative to control; details: DU-145, 48 h, read-out: Activity
# T47D = experiment: Growth inhibition of human T47D cells assessed as cell growth at 10^-5 M incubated for 48 hrs by sulforhodamine B assay relative to control; details: read-out: Activity
# BT-549 = experiment: Growth inhibition of human BT549 cells assessed as cell growth at 10^-5 M incubated for 48 hrs by sulforhodamine B assay relative to control; details: BT-549, 48 h, read-out: Activity
# SK-OV-3 = experiment: Growth inhibition of human SKOV3 cells assessed as cell growth at 10^-5 M incubated for 48 hrs by sulforhodamine B assay relative to control; details: SK-OV-3, 48 h, read-out: Activity
# OVCAR-4 = experiment: Growth inhibition of human OVCAR4 cells assessed as cell growth at 10^-5 M incubated for 48 hrs by sulforhodamine B assay relative to control; details: OVCAR-4, 48 h, read-out: Activity
# SNB-75 = experiment: Growth inhibition of human SNB75 cells assessed as cell growth at 10^-5 M incubated for 48 hrs by sulforhodamine B assay relative to control; details: SNB-75, 48 h, read-out: Activity
# TK-10 = experiment: Growth inhibition of human TK10 cells assessed as cell growth at 10^-5 M incubated for 48 hrs by sulforhodamine B assay relative to control; details: TK-10, 48 h, read-out: Activity
SMILES,growth at 10 µM (OVCAR-3),growth at 10 µM (HCC 2998),growth at 10 µM (SF-539),growth at 10 µM (OVCAR-8),growth at 10 µM (SK-MEL-28),growth at 10 µM (ACHN),growth at 10 µM (MDA-MB-468),growth at 10 µM (UO-31),growth at 10 µM (OVCAR-5),growth at 10 µM (SN12C),growth at 10 µM (HT-29),growth at 10 µM (MOLT-4),growth at 10 µM (SK-MEL-5),growth at 10 µM (RXF 393),growth at 10 µM (EKVX),growth at 10 µM (MDA-MB-231),growth at 10 µM (SNB-19),growth at 10 µM (UACC-62),growth at 10 µM (LOX IMVI),growth at 10 µM (DU-145),other results
Cc1ccc(S(=O)(=O)N2CCc3c([nH]c4ccccc34)C2c2ccc(C=O)cc2)cc1 (centres undefined),93.5%,102%,90.2%,98.2%,86%,79.1%,102%,66.7%,78.7%,87.7%,87.2%,95.9%,89.8%,96.4%,87.4%,73.4%,91.3%,65%,85.5%,101%,growth at 10 µM (IGROV-1): 86.5%; growth at 10 µM (UACC-257): 102%; growth at 10 µM (T47D): 89.1%; growth at 10 µM (BT-549): 77.1%; growth at 10 µM (SK-OV-3): 88.5%; growth at 10 µM (OVCAR-4): 85.8%; growth at 10 µM (SNB-75): 74%; growth at 10 µM (TK-10): 98%
Cc1ccc(S(=O)(=O)N2CCc3c([nH]c4ccccc34)C2c2ccc(-c3nc4ccccc4[nH]3)cc2)cc1 (centres undefined),93.5%,102%,90.2%,98.2%,86%,79.1%,102%,66.7%,78.7%,87.7%,87.2%,95.9%,89.8%,96.4%,87.4%,73.4%,91.3%,65%,85.5%,101%,growth at 10 µM (IGROV-1): 86.5%; growth at 10 µM (UACC-257): 102%; growth at 10 µM (T47D): 89.1%; growth at 10 µM (BT-549): 77.1%; growth at 10 µM (SK-OV-3): 88.5%; growth at 10 µM (OVCAR-4): 85.8%; growth at 10 µM (SNB-75): 74%; growth at 10 µM (TK-10): 98%
c1ccc2[nH]c(-c3ccc(C4NCCc5c4[nH]c4ccccc54)cc3)nc2c1 (centres undefined),107%,107%,102%,99.2%,102%,102%,94.7%,73.5%,94.2%,93.8%,94.2%,107%,96.5%,94.2%,103%,92.2%,100%,86.3%,98%,113%,growth at 10 µM (T47D): 90.8%; growth at 10 µM (BT-549): 93.2%; growth at 10 µM (SK-OV-3): 95.6%; growth at 10 µM (OVCAR-4): 97.9%; growth at 10 µM (SNB-75): 89%; growth at 10 µM (TK-10): 94.6%
O=Cc1ccc(C2NCCc3c2[nH]c2ccccc32)cc1 (centres undefined),99.7%,104%,103%,105%,109%,95%,88.7%,61.9%,100%,89%,98.9%,95.5%,93%,99.6%,89.6%,72.1%,100%,81.2%,88.6%,110%,growth at 10 µM (T47D): 92.3%; growth at 10 µM (BT-549): 90.1%; growth at 10 µM (SK-OV-3): 88.2%; growth at 10 µM (OVCAR-4): 97.4%; growth at 10 µM (SNB-75): 77.8%; growth at 10 µM (TK-10): 115%
Cc1n[nH]c2c1C(c1ccc(C3NCCc4c3[nH]c3ccccc43)cc1)C(C#N)=C(N)O2 (centres undefined),96.6%,105%,92%,104%,97.1%,83.5%,92.7%,53.9%,87.4%,87%,91.7%,81.1%,89.4%,99.2%,83.6%,77.6%,94.2%,57.8%,80.6%,105%,growth at 10 µM (T47D): 75.2%; growth at 10 µM (BT-549): 81.8%; growth at 10 µM (SK-OV-3): 92%; growth at 10 µM (OVCAR-4): 85.7%; growth at 10 µM (SNB-75): 70.4%; growth at 10 µM (TK-10): 101%
